How the values were obtained:
Type in all cases: cell-based, human
HT-1080 cells = experiment: Tube formation assay, HT-1080
Procedure: Soft agar assay and analysis was carried out as previously described. For scratch assay, confluent monolayer of U2OS and HT-1080 cells were subjected to scratch using a sterile pipette tip. Wounded monolayers were washed to remove debris and incubated with SEN461 at different concentrations for 20 hours. After the incubation period, images were taken under an Axiovert 200M (Zeiss) microscope equipped with a CCD camera, and the gap width was measured using MetaMorph 6.3 software (Universal Imaging Corp.) to calculate the area covered by cells (pixels unit). The tube formation assay was performed using growth factor-reduced Matrigel from BD (BD Biosciences; San Jose, CA, USA). Matrigel was thawed overnight at 4°C and was diluted (1∶1) with phenol red-free DMEM without serum. 100 µl of the diluted matrigel was used to coat the wells of a 96 well plate and was allowed to polymerize for 2 hours at 37°C. […] The tube formation was monitored under a phase contrast microscope (Axiovert 200, Zeiss) and imaged using MetaMorph system (Universal Imaging Corp).

[1] = tested on: HT-1080 (fibrosarcoma) cells; experiment: Soft agar assay (anchorage-independent growth), HT-1080; conditions: Homo sapiens
Procedure: (§1) Soft agar assay and analysis was carried out as previously described. For scratch assay, confluent monolayer of U2OS and HT-1080 cells were subjected to scratch using a sterile pipette tip. Wounded monolayers were washed to remove debris and incubated with SEN461 at different concentrations for 20 hours. After the incubation period, images were taken under an Axiovert 200M (Zeiss) microscope equipped with a CCD camera, and the gap width was measured using MetaMorph 6.3 software (Universal Imaging Corp.) to calculate the area covered by cells (pixels unit). The tube formation assay was performed using growth factor-reduced Matrigel from BD (BD Biosciences; San Jose, CA, USA). Matrigel was thawed overnight at 4°C and was diluted (1∶1) with phenol red-free DMEM without serum. 100 µl of the diluted matrigel was used to coat the wells of a 96 well plate and was allowed to polymerize for 2 hours at 37°C. After equilibrating the gel with the complete growth medium, 15×10^3 cells were seeded in each well and incubated for 20 hours. The tube formation was monitored under a phase contrast microscope (Axiovert 200, Zeiss) and imaged using MetaMorph system (Universal Imaging Corp).

[2] = tested on: Wnt target gene mRNA in HT-1080 cells; experiment: Quantitative RT-PCR of Wnt target genes in HT-1080; conditions: HT-1080, overnight, 10 µmol/L
Procedure: RNA extraction and quantitative RT-PCR (qPCR) expression analysis was performed as described previously. Gene expression analysis was performed using the human housekeeping gene RPL13A. Primers for the hAXIN2, hCDC25A, hc-MYC, hFZD4, hDVL2, hCSNK1G and hVEGF-A were the following: Fw: 5′-CAAGGGCCAGGTCACCAA-3′ Rv: 5′-CCCCCAACCCATCTTCGT-3′; Fw: 5′-[…]-3′ Rv: 5′-[…]-3′; Fw: 5′-GGCTCCTGGCAAAAGGTCA-3′ Rv: 5′-[…]-3′; Fw: 5′-[…]-3′ Rv: 5′-[…]-3′; Fw: 5′-[…]-3′ Rv: 5′-GTCTCCCCGCTCATTGCTC-3′; Fw: 5′-[…]-3′ Rv: 5′-[…]-3′; Fw: 5′-[…]-3′ Rv: 5′-[…]-3′.

[3] = tested on: U2OS (osteosarcoma) cells; experiment: Soft agar assay (anchorage-independent growth), U2OS; conditions: Homo sapiens
Procedure: as §1

[4] = tested on: Axin1, c-Myc, p21 protein in HT-1080 cells; experiment: Western blotting in HT-1080; conditions: HT-1080, overnight

| Structure (SMILES) | tubule-formation activity (HT-1080 cells; HT-1080, 3 µmol/L, data not shown) | IC50 [1] [nM] | c-MYC mRNA [2] | IC50 [3] [nM] | tubule-formation activity (HT-1080 cells; HT-1080, 24 hours exposure, vs DMSO) | c-Myc protein level [4] |
| --- | --- | --- | --- | --- | --- | --- |
| Cc1ccc(C(=O)Nc2ccc(S(=O)(=O)O)c3cc(S(=O)(=O)O)cc(S(=O)(=O)O)c23)cc1NC(=O)c1cccc(NC(=O)Nc2cccc(C(=O)Nc3cc(C(=O)Nc4ccc(S(=O)(=O)O)c5cc(S(=O)(=O)O)cc(S(=O)(=O)O)c45)ccc3C)c2)c1 [Suramin] | complete abrogation of tubule formation | – | – | – | – | – |
| Oc1nc(-c2ccc(C(F)(F)F)cc2)nc2c1CSCC2 [XAV939, reference compound] | – | 1900 | comparable activity | 200 | did not produce any change | did not affect c-Myc protein level |

Source: paper PMC4026528 (PLoS ONE, 2014)
